What was measured:
CMPK2 [1] = target: T1, CMPK2 (Homo sapiens, UniProt Q5EBM0); experiment: Ultrafiltration-affinity mass spectrometry screening (FC, CMPK2 vs BSA); type: binding; design: the N‐terminus was truncated by 22 amino acids; 6xHis (C); made in house; host or cells: FreeStyle 293-F cells (pTT5 vector); conditions: ratio of MS response CMPK2 vs BSA; for FC Positive: positive ion mode; for FC Negative: negative ion mode
T1 sequence (Q5EBM0 22-449): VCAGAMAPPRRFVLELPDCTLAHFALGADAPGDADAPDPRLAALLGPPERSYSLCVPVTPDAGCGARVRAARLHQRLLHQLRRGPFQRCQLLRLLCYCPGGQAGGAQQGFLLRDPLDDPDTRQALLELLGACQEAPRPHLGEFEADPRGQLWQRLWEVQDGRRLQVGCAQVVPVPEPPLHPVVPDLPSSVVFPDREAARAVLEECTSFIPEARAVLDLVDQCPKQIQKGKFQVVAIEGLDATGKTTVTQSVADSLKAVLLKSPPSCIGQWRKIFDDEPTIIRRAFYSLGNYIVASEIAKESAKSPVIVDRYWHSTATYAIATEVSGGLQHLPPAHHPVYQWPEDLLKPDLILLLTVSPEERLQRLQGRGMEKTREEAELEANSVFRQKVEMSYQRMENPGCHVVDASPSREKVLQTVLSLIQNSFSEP
Method: The purified kinase CMPK2 was incubated with the six cocktails for 30 min at 37°C in a suitable buffer solution. In the compound cocktail, each compound concentration was 1 μM, and the concentration of the kinase CMPK2 was set at 5 μM. Each of the above incubation solutions was added to a 0.5 mL 10 kDa ultrafiltration tube (Amicon μltra‐0.5 10K Centrifugal Filter Devices, Millipore), and four experimental replicates were conducted for each CMPK2 and BSA pair. The 10 kDa ultrafiltration tube was centrifuged with the incubation solution at 13 000 × g for 20 min at 4°C. Centrifugation was stopped when the solution volume was approximately 100 μL, and then the mixture was washed five times with cold ammonium acetate (150 mM, pH 7.5). For affinity selection, 100 μL of the mixture was transferred after centrifugation and rinsed into a new eppendorf tube. […] The protein precipitate was discarded and the liquid was concentrated with a N2 stream. The residue was re‐dissolved in 50% methanol before injection. BSA samples were processed in a manner parallel to that of CMPK2 samples.
Sample measurement was detected by using an UHPLC instrument (Shimadzu) combined with a Triple TOF 5600^+ MS (SCIEX). Chromatographic separation was conducted with an Acquity UPLC BEH C18 column (1.7 μm, 2.1 × 100 mm, Waters) at a temperature maintained at 40°C and a flow rate of 0.3 mL/min, with mobile phases of water–0.1% formic acid (A) and acetonitrile (B). The linear gradient elution profile was as follows: 0−2 min, 5% B; 2−12 min, 5−30% B; 12−25 min, 30−90% B; 25−30 min, 90% B; and re‐equilibration for 5 min. Subsequently, the gradient was recovered to the initial conditions at the final 1 min. Whether it was a test sample or a quality control (QC) sample, each injection volume was 5 μL.
Briefly, the chromatographic peaks of each bound ligand were extracted using PeakView with identification criteria of precise mass measurement deviation and retention time tolerance of 5 ppm and 0.1 min, respectively. The MS response of each ligand was represented with the integrated peak area extracted by the corresponding extract ion chromatogram. The effective hits were selected on the basis of fold change (FC) value ≥ 2, p value < .05 and cyclic voltammetry (CV) ≤ 30% and were identified as candidate ligands of CMPK2. By extracting the m/z of individual standards from the acquired MS/MS spectrum, the decimal point of RT was used to distinguish the ambiguous compound peaks in the cocktails.
The experimental samples were injected into a UHPLC‐Q‐TOF‐MS system. First, total ion chromatograms (TIC) reflected the general overview of all samples (Supporting Information Figure S2A). […] Among the groups, each sample with a CV more than 30% was considered an abnormal sample and was not considered in the subsequent statistical analysis. In addition, the p value of each sample between the groups was calculated by MetaboAnalyst 5.0, and the significance of differences was determined. In the ultrafiltration‐affinity mass spectrometry profiling, we calculated FC, which is defined as the ratio of the MS response between the compound detected in the CMPK2 and BSA incubation system (Supporting Information Figure S2C,D). […] To select small‐molecule ligands with strong affinity, we determined the screening criteria to be FC ≥ 2. Affinity MS analysis generated a set of raw data, and the compounds that met the pre‐judgment criteria (FC ≥ 2, p < .05) were selected as compound hits (Supporting Information Figure S2).

CMPK2 [2] = target: T1, CMPK2; experiment: CMPK2 kinase activity assay (ADP-GLO); type: biochemical; conditions: ligand concentration 10 μM, luminescence; for inhibition at 10 µM: read-out: CMPK2 inhibition
Method: The range of concentrations used to investigate the effect of small‐molecule ligands on CMPK2 activity was 0.1–150 μM. Each data point contains three biological replicates.
CMPK2 activity was measured by the ADP‐GLO kinase assay according to the guidelines specified in the manufacturer's instructions. In the activity assay, the amount of ADP formed in the CMPK2 reaction was equal to the ATP consumption and proportional to the increase in luminescence generated in the luciferase reaction, which is the experimental principle shown in Figure 1I.

| Compound | FC Positive (CMPK2 [1]) | inhibition at 10 µM (CMPK2 [2]) | FC value (CMPK2 [1]; Figure S3A) | FC Negative (CMPK2 [1]) | CMPK2 inhibition (CMPK2 [2]) |
| --- | --- | --- | --- | --- | --- |
| COc1ccc2ccc(=O)oc2c1 [compound 792, 7-methoxy coumarin] | 3.13 | > 50% | – | – | – |
| O=c1ccn([C@H]2C[C@H](O)[C@@H](COP(=O)(O)O)O2)c(=O)[nH]1 [dUMP, reference compound] | 1.17 | – | 1.9 | – | – |
| CC(C)=CCCC(C)(O)[C@H]1CC[C@]2(C)[C@@H]1[C@H](O)C[C@@H]1[C@@]3(C)CC[C@H](O)C(C)(C)[C@@H]3CC[C@]12C (stereo in doubt) [compound 368, Protopanaxadiol] | – | – | – | 3.70 | more than 50% |
| O=c1c(O[C@@H]2O[C@H](CO)[C@H](O)[C@H](O)[C@H]2O)c(-c2ccc(O)c(O)c2)oc2cc(O)cc(O)c12 [compound 400, Hyperoside] | 4.74 | > 50% | – | 6.41 | – |

— article PMC10587737, “Dracorhodin targeting CMPK2 attenuates inflammation: A novel approach to sepsis therapy” (Clinical and Translational Medicine, 2023)
